Data on two compounds can be found in patent US11339193B2, “CDP protein secretion inhibitors” (KEZAR LIFE SCIENCES, priority 2018, dated 2022).

Read-outs that look alike come from different tables or passages of the source. Peptide text beside a SMILES is read from it.

Holding throughout (format): cell-based
In test [1] the test system is JJN3 plasma cell leukemia cell line. Nature of the test: JJN-3 assay (Alamar blue). The note with it: Homo sapiens, 72 h. An outline of the steps:
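For both lines, 5000 cells/well were exposed to compound or a 1% DMSO-medium control for 72 h unless otherwise specified. Signal was normalized to the DMSO control.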

Test [2] relates to FLT3ss-Gluc. Nature of the test: FLT3ss assay. Here is the method: The mature domain of secreted luciferase from Gaussia princeps (GLuc) was cloned into pcDNA5/FRT/TO. The signal sequence plus four amino acids of the mature domain from FLT3 ([…]) (SEQ ID NO:7) were cloned upstream of GLuc mature domain and used in transient transfection experiment.
HEK-293T T-rex cells were cultured in Dulbecco's modified Eagle's medium with 10% FBS at 5% CO2. Cells were plated 1×10e6 cells per well in a 6-well plate and incubated for 6 h. Cells were transiently transfected with FLT3ss-Gluc using Lipofectamine 2000 (Invitrogen). After overnight incubation, transfected cells were replated in a clear-bottomed, black 96-well plate at a density of 20,000 cells per well. Six hours after plating, the cells were treated with doxycycline (1 μg/ml) and increasing concentrations of the indicated compounds for 24 h. Secreted luciferase in the conditioned media was quantified by luminescence using the BioLux Gaussia Luciferase Assay Kit (New England Biolabs, Ipswich, Mass., USA) and a SpectraMax M5 plate reader (Molecular Devices).

Test [3] has as its system U266B1 multiple myeloma cell line. Nature of the test: U266 assay (cell viability, Celltiter-Glo). The note with it: Homo sapiens, U-266; 48 hours, cell viability. As to the method:
Cells were plated in 384-well tissue culture plates and treated with compound dilutions in DMSO/media. Plates were incubated at 37° C., 5% CO2 for 48 hours. After 48 hours, Celltiter-Glo@ (Promega) was added to each well and luciferase signal was quantified using Tecan Infinite M1000 Pro for cell viability determination.

For test [4], the system named is PD1-ss+10aa/Gaussia Luciferase. Nature of the test: Dox induced PD1-ss-Gluc assay. The note with it: Flp-In 293 T-REx cells, doxycycline, 24 hours; read-out: PD1ss Gluc IC50. The method in brief:
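Stable Flp-In 293 T-REx line expressing doxycycline-inducible Gaussia luciferase fused to the PD1 signal sequence plus 10 amino acids. Cells plated the day before, then exposed to compound dilutions in DMSO/media containing doxycycline at 37 °C, 5% CO2.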

Test [5] concerns TNFα-FL/Gaussia Luciferase. Nature of the test: Dox induced TNFα-FL-Gluc assay. The note with it: Flp-In 293 T-REx cells, doxycycline, 24 hours; read-out: TNFa FL Gluc IC50. The method in brief:
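Stable Flp-In 293 T-REx line expressing full-length TNFα (aa 1-233) fused at its C-terminus to Gaussia luciferase under doxycycline-inducible control. Cells plated the day before, then given compound dilutions in DMSO/media containing doxycycline and incubated at 37 °C, 5% CO2.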

On to `C#CC[C@H]1OC(=O)[C@H](C)N(C)C(C)[C@H](C[C@H](C)CCCC)NC(=O)[C@H](Cc2ccccc2)N(C)C(=O)[C@H](CC(C)C)NC(=O)[C@H](CC(C)C)N(C)C(=O)[C@H](C[C@H](C)CCCC)NC1=O` (stereo partly shown) [C-01], for which the EC50 in test [1] worked out at 222 nM; in test [3] it was 23500 nM. Moreover, the IC50 in test [2] (read-out: FLT3ss IC50; HEK-293T T-rex cells, transient transfection, doxycycline, 24 h) is 52 nM; in test [4], 56 nM; in test [5], 79 nM.
In the case of `CC(C)C[C@@H]1NC(=O)[C@H](Cc2cn(Cc3ccccc3)c3ccccc23)N(C)C(=O)[C@H](CC(C)C)NC(=O)[C@H](CC(C)C)N(C)C(=O)[C@H](CC(C)C)NC(=O)[C@@H](CCC#N)OC(=O)[C@H](C)N(C)C1=O` [C-16] (HELM PEPTIDE1{L.[meA].[N#CCC[C@@H](O[*:1])C(=O)[*:2]].L.[meL].L.[CN([C@@H](Cc1cn(Cc2ccccc2)c2ccccc12)C(=O)[*:2])[*:1]]}$PEPTIDE1,PEPTIDE1,1:R1-7:R2$$$V2.0), the EC50 in test [1] came out at 245 nM; in test [3], 13400 nM. For the same compound, the IC50 in test [2] (HEK-293T T-rex cells, transient transfection, doxycycline, 24 h; read-out: FLT3ss IC50) stood at 32 nM; in test [4] it was 27 nM; in test [5], 92 nM.
